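Dose response: 5 concentrations. Exposure: 48 h. Format: 96-well plates. Endpoint: linear interpolation; highest concentration if not reached. GI50 marks 50% less growth. The concentration for full growth arrest is given as TGI.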
Assays:
Assay in all cases: NCI anticancer screen, dose series, 48 h
[1] = test system: SK-OV-3 ovarian
[2] = test system: HCT-15 colon
[3] = test system: HS 578T breast
[4] = test system: HCC-2998 colon
[5] = test system: OVCAR-5 ovarian
[6] = test system: SF-539 CNS
[7] = test system: 786-0 renal
[8] = test system: A549 NSCLC
[9] = test system: OVCAR-8 ovarian
[10] = test system: SK-MEL-2 melanoma
[11] = test system: HT29 colon
[12] = test system: SNB-75 CNS
[13] = test system: NCI-H522 lung
[14] = test system: T-47D breast
[15] = test system: KM12 colon
[16] = test system: HCT-116 colon
[17] = test system: PC-3 prostate
[18] = test system: SK-MEL-28 melanoma
[19] = test system: SR leukemia
[20] = test system: SW-620 colon
[21] = test system: RPMI-8226 leukemia
[22] = test system: TK-10 renal
[23] = test system: MOLT-4 leukemia
[24] = test system: OVCAR-3 ovarian
[25] = test system: EKVX NSCLC
[26] = test system: UO-31 renal
[27] = test system: UACC-62 melanoma
[28] = test system: RXF 393 renal
[29] = test system: SF-268 CNS
[30] = test system: MDA-MB-435
[31] = test system: K-562 leukemia
[32] = test system: LOX IMVI melanoma
[33] = test system: NCI-H23 lung
[34] = test system: U251 CNS
[35] = test system: A498 renal
[36] = test system: MALME-3M melanoma
[37] = test system: IGROV1 ovarian
[38] = test system: SNB-19 CNS
[39] = test system: NCI-H226 lung
[40] = test system: DU-145 prostate
[41] = test system: SF-295 CNS
[42] = test system: NCI-H460 lung
[43] = test system: M14 melanoma
[44] = test system: CAKI-1 renal
[45] = test system: CCRF-CEM leukemia
[46] = test system: NCI/ADR-RES ovarian
[47] = test system: ACHN renal
[48] = test system: OVCAR-4 ovarian
[49] = test system: HOP-62 NSCLC
[50] = test system: MCF7 breast
[51] = test system: UACC-257 melanoma
[52] = test system: COLO 205 colon
[53] = test system: MDA-MB-231 breast
[54] = test system: HL-60(TB) leukemia
[55] = test system: SN12C renal
[56] = test system: BT-549 breast
[57] = test system: SK-MEL-5 melanoma
[58] = test system: HOP-92 NSCLC

COCCN1CCN(Cc2ccc(-c3n[nH]c4c3C(=O)c3c(NC(=O)NN5CCOCC5)cccc3-4)cc2)CC1
GI50 [1]: 45.7 nM | TGI [1]: > 9410 nM | GI50 [2]: 117 nM | TGI [2]: 2000 nM | GI50 [3]: 29.3 nM | TGI [3]: 1220 nM | GI50 [4]: 26.2 nM | TGI [4]: 274 nM | GI50 [5]: 21.2 nM | TGI [5]: > 4700 nM | GI50 [6]: 29 nM | TGI [6]: 86 nM | GI50 [7]: 33.6 nM | TGI [7]: > 10000 nM | GI50 [8]: 28.9 nM | TGI [8]: 214 nM | GI50 [9]: 30.9 nM | GI50 [10]: 21.2 nM | TGI [10]: 55.6 nM | GI50 [11]: 34.7 nM | TGI [11]: 299 nM | GI50 [12]: 21.4 nM | TGI [12]: 71 nM | GI50 [13]: 19.4 nM | TGI [13]: 73.6 nM | GI50 [14]: 21.6 nM | GI50 [15]: 27.8 nM | TGI [15]: 572 nM | GI50 [16]: 8.97 nM | TGI [16]: 1140 nM | GI50 [17]: 23 nM | TGI [17]: > 3860 nM | GI50 [18]: 24.6 nM | TGI [18]: 471 nM | GI50 [19]: 9.85 nM | TGI [19]: 59.9 nM | GI50 [20]: 24.2 nM | TGI [20]: > 6220 nM | GI50 [21]: 28.8 nM | TGI [21]: 83.3 nM | GI50 [22]: 19.9 nM | TGI [22]: 422 nM | GI50 [23]: 21.2 nM | TGI [23]: 228 nM | GI50 [24]: 24.2 nM | GI50 [25]: 34.8 nM | GI50 [26]: 91.6 nM | TGI [26]: 9360 nM | GI50 [27]: 14.5 nM | TGI [27]: 46.2 nM | GI50 [28]: 18.9 nM | TGI [28]: 45.8 nM | GI50 [29]: 31.8 nM | GI50 [30]: 22.7 nM | TGI [30]: 424 nM | GI50 [31]: 32 nM | TGI [31]: > 10000 nM | GI50 [32]: 18.5 nM | TGI [32]: 120 nM | GI50 [33]: 22.7 nM | TGI [33]: 129 nM | GI50 [34]: 20.4 nM | GI50 [35]: 29.2 nM | TGI [35]: 141 nM | GI50 [36]: 70.5 nM | GI50 [37]: 22.6 nM | TGI [37]: 1190 nM | GI50 [38]: 29.8 nM | TGI [38]: > 10000 nM | GI50 [39]: 32.9 nM | TGI [39]: > 2460 nM | GI50 [40]: 26.7 nM | GI50 [41]: 34.5 nM | TGI [41]: > 10000 nM | GI50 [42]: 27.4 nM | TGI [42]: 623 nM | GI50 [43]: 29.6 nM | TGI [43]: 380 nM | GI50 [44]: 27.7 nM | TGI [44]: > 10000 nM | GI50 [45]: 21.1 nM | GI50 [46]: 713 nM | TGI [46]: > 10000 nM | GI50 [47]: 51.2 nM | TGI [47]: > 10000 nM | GI50 [48]: 32.2 nM | TGI [48]: 932 nM | GI50 [49]: 32.4 nM | TGI [49]: 2940 nM | GI50 [50]: 7.66 nM | TGI [50]: > 5520 nM | GI50 [51]: 33.6 nM | TGI [51]: 281 nM | GI50 [52]: 15.1 nM | TGI [52]: 47.4 nM | GI50 [53]: 19.4 nM | TGI [53]: 584 nM | GI50 [54]: 8.88 nM | TGI [54]: 45.3 nM | GI50 [55]: 30.7 nM | TGI [55]: > 10000 nM | GI50 [56]: 30.8 nM | TGI [56]: 209 nM | GI50 [57]: 26.9 nM

COC1C(OC(=O)/C=C/C=C/C=C/C=C\C(=O)O)CCC2(CO2)C1C1(C)OC1CC=C(C)C (configuration not stated)
GI50 [1]: > 200000 nM | TGI [1]: > 200000 nM | GI50 [2]: > 200000 nM | TGI [2]: > 200000 nM | GI50 [3]: > 200000 nM | TGI [3]: > 200000 nM | GI50 [5]: > 200000 nM | TGI [5]: > 200000 nM | GI50 [6]: > 200000 nM | TGI [6]: > 200000 nM | GI50 [7]: > 200000 nM | TGI [7]: > 200000 nM | GI50 [58]: > 200000 nM | TGI [58]: > 200000 nM | GI50 [10]: > 200000 nM | TGI [10]: > 200000 nM | GI50 [11]: > 200000 nM | TGI [11]: > 200000 nM | GI50 [12]: > 200000 nM | TGI [12]: > 200000 nM | GI50 [13]: > 200000 nM | TGI [13]: > 200000 nM | GI50 [14]: > 200000 nM | TGI [14]: > 200000 nM | GI50 [15]: > 200000 nM | TGI [15]: > 200000 nM | GI50 [16]: > 200000 nM | TGI [16]: > 200000 nM | GI50 [17]: > 200000 nM | TGI [17]: > 200000 nM | GI50 [18]: > 200000 nM | TGI [18]: > 200000 nM | GI50 [20]: > 200000 nM | TGI [20]: > 200000 nM | GI50 [21]: > 200000 nM | TGI [21]: > 200000 nM | GI50 [22]: > 200000 nM | TGI [22]: > 200000 nM | GI50 [23]: > 200000 nM | TGI [23]: > 200000 nM | GI50 [24]: > 200000 nM | TGI [24]: > 200000 nM | GI50 [25]: > 200000 nM | TGI [25]: > 200000 nM | GI50 [26]: > 200000 nM | TGI [26]: > 200000 nM | GI50 [27]: > 200000 nM | TGI [27]: > 200000 nM | GI50 [28]: > 200000 nM | TGI [28]: > 200000 nM | GI50 [29]: > 200000 nM | TGI [29]: > 200000 nM | GI50 [30]: > 200000 nM | TGI [30]: > 200000 nM | GI50 [31]: > 200000 nM | TGI [31]: > 200000 nM | GI50 [32]: > 200000 nM | TGI [32]: > 200000 nM | GI50 [33]: > 200000 nM | TGI [33]: > 200000 nM | GI50 [34]: > 200000 nM | TGI [34]: > 200000 nM | GI50 [35]: > 200000 nM | TGI [35]: > 200000 nM | TGI [36]: > 200000 nM | GI50 [37]: > 200000 nM | TGI [37]: > 200000 nM | GI50 [38]: > 200000 nM | TGI [38]: > 200000 nM | GI50 [39]: > 200000 nM | TGI [39]: > 200000 nM | GI50 [40]: > 200000 nM | TGI [40]: > 200000 nM | GI50 [41]: > 200000 nM | TGI [41]: > 200000 nM | GI50 [42]: > 200000 nM | TGI [42]: > 200000 nM | GI50 [43]: > 200000 nM | TGI [43]: > 200000 nM | GI50 [44]: > 200000 nM | TGI [44]: > 200000 nM | GI50 [45]: > 200000 nM | TGI [45]: > 200000 nM | GI50 [46]: > 200000 nM | TGI [46]: > 200000 nM | GI50 [47]: > 200000 nM | TGI [47]: > 200000 nM | GI50 [48]: > 200000 nM | TGI [48]: > 200000 nM | GI50 [49]: > 200000 nM | TGI [49]: > 200000 nM | GI50 [50]: > 200000 nM | TGI [50]: > 200000 nM | GI50 [52]: > 200000 nM | TGI [52]: > 200000 nM | GI50 [53]: > 200000 nM | TGI [53]: > 200000 nM | GI50 [55]: > 200000 nM | TGI [55]: > 200000 nM | GI50 [56]: > 200000 nM | TGI [56]: > 200000 nM | GI50 [57]: > 200000 nM | TGI [57]: > 200000 nM
